Measured values published in ChEMBL document CHEMBL5370690, “Atypical N-Alkyl to N-Noralkoxy Switch in a Dual cSRC/BCR-ABL1 Kinase Inhibitor Improves Drug Efflux and hERG Affinity” (ACS Med Chem Lett, 2023).

Assays:
[1] = Mutagenicity in Salmonella typhimurium TA98 incubated for 96 hrs by Ames test; assay type: toxicity; conditions: salmonella enterica subsp. enterica serovar typhimurium
[2] = Mutagenicity in Salmonella typhimurium TA100 incubated for 96 hrs by Ames test; assay type: toxicity; conditions: salmonella enterica subsp. enterica serovar typhimurium
[3] = Mutagenicity in Salmonella typhimurium TA1537 incubated for 96 hrs by Ames test; assay type: toxicity; conditions: salmonella enterica subsp. enterica serovar typhimurium
[4] = Mutagenicity in Salmonella typhimurium TA1535 incubated for 96 hrs by Ames test; assay type: toxicity; conditions: salmonella enterica subsp. enterica serovar typhimurium
KU812 cell line = assay: Antiproliferative activity against human KU812 cell line assessed as cell growth inhibition incubated for 72 hrs by Cell Titer-Glo Luminescent assay; assay type: functional, cell-based; conditions: KU812, 72 h
MEG-01 = assay: Antiproliferative activity against human MEG-01 cells assessed as cell growth inhibition incubated for 72 hrs by Cell Titer-Glo Luminescent assay; assay type: functional, cell-based; conditions: MEG-01, 72 h
SUP-B15 = assay: Antiproliferative activity against human SUP-B15 cells assessed as cell growth inhibition incubated for 72 hrs by Cell Titer-Glo Luminescent assay; assay type: functional, cell-based; conditions: SUP-B15, 72 h

SMILES: COc1cc(Nc2c(C#N)cnc3cc(OCCON4CCN(C)CC4)c(OC)cc23)c(Cl)cc1Cl
- Activity [1]: Non-Toxic
- Activity [2]: Non-Toxic
- Activity [3]: Non-Toxic
- Activity [4]: Non-Toxic

SMILES: COc1cc(Nc2c(C#N)cnc3cc(OCCCN4CCN(C)CC4)c(OC)cc23)c(Cl)cc1Cl [BOSUTINIB]
- IC50 (KU812 cell line): 3.6 nM
- IC50 (MEG-01): 13 nM
- IC50 (SUP-B15): 210 nM
